In patent publication US3968233A, “α-Amino-γ-butyrolactones as sedatives” (priority 1975, dated 1976):
Counter-ions that a name gives are not always drawn.

How the values were obtained:
[1] = type: in vivo, mouse; details: control experiments; 95-percent confidence limits
Description: This type of antagonism was evaluated in the mouse in three ways, namely: (1) protection from death from one hypodermic injection of strychnine: (2) evaluation of the LD50 of strychnine in mice both treated and untreated with AP-28, and (3) influence on the time required to cause animals to die by slow intravenous perfusion of strychnine. […] Groups of six mice were used. (2) increasing amounts of strychnine sulfate were injected hypodermically. In two experiments 200 or 400 mg/kg of intraperitoneal AP-28 were given 30 minutes prior to strychnine injection and the LD50 was calculated. The following results were obtained (95-percent confidence limits): […]

[2] = Influence on amphetamine-induced hypermobility; type: in vivo, mouse; details: d-amphetamine sulfate 5 mg/kg i.p. alone
Description: Six groups of 4 mice each were treated with 5 mg/kg d-amphetamine sulfate by intraperitoneal administration. Six groups of 4 animals each received the same dose of d-amphetamine sulfate plus 250 mg/kg of AP-28 intraperitoneally 15 minutes after d-amphetamine sulfate; six more groups of four animals each received saline solution and served as control animals. […] The number of times each animal crossed the light beam throughout the 10-minute test was noted.

[3] = Enhancement of the hypnotic effect of sodium pentobarbital; type: in vivo, mouse; details: sodium pentobarbital 40 mg/kg i.p. alone
Description: Forty mg/kg of sodium pentobarbital was injected intraperitoneally into mice and note was taken of animals losing the righting reflex and for how long. Other mice received a preliminary treatment with AP-28 at a dosage of 250 and 500 mg/kg, intraperitoneally, and thereafter sodium pentobarbital was given to them.

[4] = Protective effect against electroshock (MES); details: phenobarbital Na 40 mg/kg i.p., 10 minutes before electroshock

O=C1C[C@@H]2OCC=C3CN4CC[C@]56c7ccccc7N1[C@H]5[C@H]2[C@H]3C[C@H]46 [Strychnine, strychnine sulfate]
LD50 of strychnine [1]: 0.83 (1.02-0.67) mg/kg

C[C@H](N)Cc1ccccc1 [d-amphetamine, d-amphetamine sulfate, reference compound]
Mean number of crossings (± SE) in 10 minutes [2]: 657 ± 59

CCCC(C)C1(CC)C(=O)NC(=O)NC1=O (stereo not shown) [sodium pentobarbital, reference compound]
Animals under hypnosis/treated [3]: 3/4
Duration of hypnosis in minutes (m ± SE) ([3]; zero assigned to animals not losing righting reflex): 3.25 ± 3.4 min

CCC1(c2ccccc2)C(=O)NC(=O)NC1=O [Phenobarbital Na, Phenobarbital sodium, reference compound]
Number animals died [4]: 0/8
Number animals with clonic convulsions ([4]; in parentheses number treated): 8(8)
Number animals with tonic convulsions ([4]; in parentheses number treated): 0(8)
